The source of these data is ChEMBL document CHEMBL1275512, “Comparative in vitro activities of the investigational fluoroquinolone DC-159a and other antimicrobial agents against human mycoplasmas and ureaplasmas” (2008).

The structures appear in SMILES notation. Converted amounts (≈) assume the structure as drawn. The source made the active and inactive calls. The rule behind the calls is not given here. Where only a bound is given, the exact number is not on record here.

The test system of assay [1] is Mycoplasmoides pneumoniae. The assay is described as follows: Antimicrobial activity against Mycoplasma pneumoniae by broth microdilution method. It is filed as functional. In general terms: Dilution methods test growth across graded concentrations, often in twofold steps.
Another assay concerns Mycoplasma genitalium. The assay can be described thus: Antimicrobial activity against Mycoplasma genitalium by broth microdilution method. The following applies: Mycoplasmoides genitalium. It is filed as functional.
Assay [2] relates to Ureaplasma parvum. The assay can be described thus: Antimicrobial activity against fluoroquinolone-resistant Ureaplasma parvum by broth microdilution method. It is filed as functional.
In another assay the test system is Ureaplasma urealyticum. The assay can be described thus: Antimicrobial activity against Ureaplasma urealyticum by broth microdilution method. It is filed as functional.
The subject of another assay is Mycoplasma fermentans. The assay is described as follows: Antimicrobial activity against Mycoplasma fermentans by broth microdilution method. Format: functional. The following applies: Mycoplasmopsis fermentans.
Assay [3] deals with Mycoplasmoides pneumoniae. The assay can be described thus: Bactericidal activity against Mycoplasma pneumoniae assessed as log reduction in bacterial load at MIC after 72 hrs. Format: functional.
Assay [4] deals with Ureaplasma parvum. The assay can be described thus: Antimicrobial activity against Ureaplasma parvum by broth microdilution method. It is filed as functional.
For assay [5], the system named is Mycoplasmoides pneumoniae. The assay is described as follows: Bactericidal activity against Mycoplasma pneumoniae assessed as log reduction in bacterial load at MIC after 24 hrs. Format: functional.
Another assay deals with Metamycoplasma hominis. The assay is described as follows: Antimicrobial activity against Mycoplasma hominis by broth microdilution method. It is filed as functional.
The subject of assay [6] is Mycoplasmoides pneumoniae. The assay is described as follows: Bactericidal activity against Mycoplasma pneumoniae at 8 X MIC after 120 hrs. It is filed as functional, organism-based.
Assay [7] has as its system Mycoplasmoides pneumoniae. The assay is described as follows: Bactericidal activity against Mycoplasma pneumoniae at MIC after 48 hrs. Format: functional, organism-based.

On to `COc1c(N2CC3(CC3)[C@](C)(N)C2)c(F)cc2c(=O)c(C(=O)O)cn([C@@H]3C[C@@H]3F)c12`, for which the MIC50 is 0.063 µg/mL (≈ 0.15 µM) in assay [1]; 0.5 µg/mL (≈ 1.19 µM) against Ureaplasma urealyticum; 0.016 µg/mL (≈ 0.0381 µM) against Mycoplasma fermentans; 0.5 µg/mL (≈ 1.19 µM) in the assay on Ureaplasma parvum [4]; 0.125 µg/mL (≈ 0.298 µM) in the assay on Metamycoplasma hominis. The MIC90 in [1] was 0.063 µg/mL (≈ 0.15 µM); with Ureaplasma urealyticum, 1 µg/mL (≈ 2.38 µM); against Mycoplasma fermentans, 0.032 µg/mL (≈ 0.0763 µM); in the assay on Ureaplasma parvum [4], 2 µg/mL (≈ 4.77 µM); against Metamycoplasma hominis it was 0.25 µg/mL (≈ 0.596 µM). Further, the MIC against Mycoplasma genitalium is 0.016 µg/mL (≈ 0.0381 µM); in the assay on Ureaplasma parvum [2], 4 µg/mL (≈ 9.54 µM). Further, the FC in assay [3] and in assay [5] was 3 throughout.
As to `CC[C@H]1OC(=O)[C@H](C)[C@@H](O[C@H]2C[C@@](C)(OC)[C@@H](O)[C@H](C)O2)[C@H](C)[C@@H](O[C@@H]2O[C@H](C)C[C@H](N(C)C)[C@H]2O)[C@](C)(O)C[C@@H](C)CN(C)[C@H](C)[C@@H](O)[C@]1(C)O` [AZITHROMYCIN], the MIC (in assay [1]; with Mycoplasma genitalium) was not above 0.001 µg/mL throughout. For the same molecule, the MIC50 in assay [1] is not above 0.001 µg/mL; in the assay with Ureaplasma urealyticum, 2 µg/mL (≈ 2.67 µM); against Ureaplasma parvum [4] it was 1 µg/mL (≈ 1.34 µM). Besides, the figures for the MIC90 (in assay [1]; against Ureaplasma urealyticum; with Ureaplasma parvum [4]) were not above 0.001 µg/mL, 4 µg/mL (≈ 5.34 µM) and 2 µg/mL (≈ 2.67 µM), respectively.
`O=C(O)c1cn(C2CC2)c2cc(N3CCNCC3)c(F)cc2c1=O` [CIPROFLOXACIN]: the MIC50 in [1] was 2 µg/mL (≈ 6.04 µM); in the assay with Ureaplasma urealyticum it was 4 µg/mL (≈ 12.1 µM); in the assay on Mycoplasma fermentans it was 0.063 µg/mL (≈ 0.19 µM); against Ureaplasma parvum [4], 2 µg/mL (≈ 6.04 µM); with Metamycoplasma hominis, 0.5 µg/mL (≈ 1.51 µM). Besides, the MIC90 in assay [1] came to 4 µg/mL (≈ 12.1 µM); against Ureaplasma urealyticum it was 8 µg/mL (≈ 24.1 µM); with Mycoplasma fermentans it was 0.125 µg/mL (≈ 0.377 µM); with Ureaplasma parvum [4], 16 µg/mL (≈ 48.3 µM); in the assay on Metamycoplasma hominis it was 1 µg/mL (≈ 3.02 µM). Besides, the results for the MIC in the assay with Mycoplasma genitalium and against Ureaplasma parvum [2] were 0.5 µg/mL (≈ 1.51 µM) and 32 µg/mL (≈ 96.6 µM), respectively.
Consider `C[C@H]1c2cccc(O)c2C(=O)C2=C(O)[C@]3(O)C(=O)C(C(N)=O)=C(O)[C@@H](N(C)C)[C@@H]3[C@@H](O)[C@@H]21.O` [DOXYCYCLINE], for which the MIC50 in [1] turned out to be 0.25 µg/mL; with Ureaplasma urealyticum it was 0.125 µg/mL; against Mycoplasma fermentans it was 0.25 µg/mL; against Ureaplasma parvum [4] it was 0.125 µg/mL; in the assay with Metamycoplasma hominis, 2 µg/mL. Moreover, the MIC90 in assay [1] is 0.5 µg/mL; with Ureaplasma urealyticum, 0.5 µg/mL; against Mycoplasma fermentans, 1 µg/mL; in the assay on Ureaplasma parvum [4], 2 µg/mL; in the assay on Metamycoplasma hominis it was 8 µg/mL. The same molecule displayed an MIC against Mycoplasma genitalium of 0.032 µg/mL.
On to `CC[C@H]1OC(=O)[C@H](C)[C@@H](O[C@H]2C[C@@](C)(OC)[C@@H](O)[C@H](C)O2)[C@H](C)[C@@H](O[C@@H]2O[C@H](C)C[C@H](N(C)C)[C@H]2O)[C@](C)(O)C[C@@H](C)C(=O)[C@H](C)[C@@H](O)[C@]1(C)O` [ERYTHROMYCIN], for which the MIC50 in assay [1] was 0.004 µg/mL (≈ 0.00545 µM); with Ureaplasma urealyticum it was 2 µg/mL (≈ 2.73 µM); against Mycoplasma fermentans it was 0.032 µg/mL (≈ 0.0436 µM); against Ureaplasma parvum [4] it was 1 µg/mL (≈ 1.36 µM); in the assay with Metamycoplasma hominis, 0.016 µg/mL (≈ 0.0218 µM). The MIC90 in [1] stood at 0.004 µg/mL (≈ 0.00545 µM); against Ureaplasma urealyticum, 4 µg/mL (≈ 5.45 µM); in the assay on Mycoplasma fermentans it was 0.125 µg/mL (≈ 0.17 µM); in the assay with Ureaplasma parvum [4], 4 µg/mL (≈ 5.45 µM); with Metamycoplasma hominis, 0.032 µg/mL (≈ 0.0436 µM). In addition, the MIC against Mycoplasma genitalium is not above 0.001 µg/mL. Further, the result in [6] was Active.
Regarding `C[C@H]1COc2c(N3CCN(C)CC3)c(F)cc3c(=O)c(C(=O)O)cn1c23.C[C@H]1COc2c(N3CCN(C)CC3)c(F)cc3c(=O)c(C(=O)O)cn1c23.O` [LEVOFLOXACIN], the MIC50 in assay [1] is 0.5 µg/mL; against Ureaplasma urealyticum, 1 µg/mL; against Mycoplasma fermentans, 0.063 µg/mL; against Ureaplasma parvum [4] it was 0.5 µg/mL; against Metamycoplasma hominis it was 0.25 µg/mL. Further, the MIC90 was 1 µg/mL in assay [1]; 1 µg/mL in the assay on Ureaplasma urealyticum; 0.125 µg/mL in the assay on Mycoplasma fermentans; 2 µg/mL against Ureaplasma parvum [4]; 0.5 µg/mL in the assay with Metamycoplasma hominis. The MIC was found to be 1 µg/mL against Mycoplasma genitalium, 16 µg/mL in the assay with Ureaplasma parvum [2] and 0.5 µg/mL in the assay on Ureaplasma parvum [4].
Regarding `COc1c(N2C[C@@H]3CCCN[C@@H]3C2)c(F)cc2c(=O)c(C(=O)O)cn(C3CC3)c12` [MOXIFLOXACIN], the MIC50 in assay [1] came to 0.125 µg/mL (≈ 0.311 µM); with Ureaplasma urealyticum, 0.25 µg/mL (≈ 0.623 µM); in the assay on Mycoplasma fermentans it was 0.032 µg/mL (≈ 0.0797 µM); against Ureaplasma parvum [4], 0.5 µg/mL (≈ 1.25 µM); in the assay on Metamycoplasma hominis it was 0.063 µg/mL (≈ 0.157 µM). Besides, the MIC90 in assay [1] amounted to 0.125 µg/mL (≈ 0.311 µM); with Ureaplasma urealyticum, 0.5 µg/mL (≈ 1.25 µM); against Mycoplasma fermentans, 0.063 µg/mL (≈ 0.157 µM); against Ureaplasma parvum [4] it was 2 µg/mL (≈ 4.98 µM); in the assay with Metamycoplasma hominis, 0.063 µg/mL (≈ 0.157 µM). For the same molecule, the MIC in the assay on Mycoplasma genitalium was determined as 0.016 µg/mL (≈ 0.0399 µM); with Ureaplasma parvum [2], 4 µg/mL (≈ 9.96 µM); in the assay with Ureaplasma urealyticum, 0.25 µg/mL (≈ 0.623 µM). The outcome in assay [7] was Active.
`CN(C)[C@@H]1C(O)=C(C(N)=O)C(=O)[C@@]2(O)C(O)=C3C(=O)c4c(O)cccc4[C@@](C)(O)[C@H]3C[C@@H]12` [TETRACYCLINE]: the MIC50 (in assay [1]; against Ureaplasma urealyticum; against Mycoplasma fermentans; against Ureaplasma parvum [4]; against Metamycoplasma hominis) was 0.5 µg/mL (≈ 1.13 µM) in each case. For the same molecule, the MIC90 in assay [1] worked out at 1 µg/mL (≈ 2.25 µM); in the assay with Ureaplasma urealyticum it was 2 µg/mL (≈ 4.5 µM); with Mycoplasma fermentans, 1 µg/mL (≈ 2.25 µM); with Ureaplasma parvum [4] it was 8 µg/mL (≈ 18 µM); in the assay with Metamycoplasma hominis, 16 µg/mL (≈ 36 µM). In the assay on Mycoplasma genitalium, this molecule displayed a minimal inhibitory concentration (MIC) of 0.25 µg/mL (≈ 0.563 µM).

Usually MIC50 stands for an inhibitory concentration at the 50% level, which refers to growth in some studies and to a panel of isolates in others. For orientation: MIC90 means an inhibitory concentration at the 90% level, which refers to growth in some studies and to a panel of isolates in others. Higher therefore signals weaker potency. As usually defined, the MIC is the least concentration at which growth counts as inhibited.
